Assay results: publication PMC11116330, “The evolutionary novelty of insect defensins: from bacterial killing to toxin neutralization” (Cellular and Molecular Life Sciences: CMLS, 2024)
Read-outs that look alike come from different tables or passages of the source. Positions of bridges follow the written chain, without caps; N, C: chain ends. Residues, ends and D or L forms follow the SMILES beside them.

Experiments:
[1] = tested on: S15 DNA (15-bp fragment derived from the MRE motif CES11D1); assay: Electrophoretic mobility shift assay (EMSA); assay type: binding; settings: 5 µM annealed double strand S15, DvirARP 2, 4 or 8 µM, room temperature 20 min, 6% native polyacrylamide, ethidium bromide staining
[2] = tested on: Micrococcus luteus CGMCC 1.0290
[3] = Variable temperature CD spectroscopy; assay type: physicochemical; settings: 10 to 65 °C, oxidized product, 5 mM PB pH 7.0
Procedure: For CD analysis, a peptide sample was dissolved in 5 mM phosphate buffer (PB, pH7.0) with a concentration of 0.1–0.2 mg/mL. CD spectra were measured on the Chirascan Plus spectropolarimeter v.4.4.0 (Applied Photophysics Ltd, UK) by using a quartz cell of 1.0 mm thickness. The wavelengths used ranged from 190 to 260 nm. Data were collected at 1 nm intervals with a scan rate of 0.5 s per point and expressed as delta epsilon (cm^-1M^-1). Delta epsilon was calculated as [θ×(MRW×0.1)/(C×L)/3298], where θ is the ellipticity (in millidegrees), C is the concentration (in mg/mL), L is the path length (in cm), and MRW is the mean residue weight (in Da).
Fig. 4 Experiment data-guided structural model of DvirARP built by comparative modelling. (A) Comparison of CD spectra of reduced and oxidized DvirARP in 5 mM PB buffer (pH7.0). Signature bands for the presence of cation–π and 3_10-helix are denoted by arrows. (B) Thermal denaturation curves of the oxidized product at indicated temperatures. (C) Sequence comparison between DvirARP and the template MSL2 CXC (residues 542–559). Identical and conserved residues are shadowed in yellow and grey, respectively. Residues involved in cation–π interactions are underlined twice. The predicted secondary structure element and disulfide bridges are extracted from the experiment-based computational model. […] (E) The cation–π interaction on the DvirARP structure. […]

[4] = tested on: Bacillus megaterium CGMCC 1.0459
[5] = tested on: Methicillin-sensitive Staphylococcus aureus (MSSA) CGMCC 1.89; assay: Inhibition-zone antimicrobial assay; assay type: cell-based; settings: 1 nmol/well

SMILES: CC[C@H](C)[C@H](NC(=O)[C@H](C)NC(=O)[C@H](CC(N)=O)NC(=O)[C@H](CCCNC(=N)N)NC(=O)[C@H](C)NC(=O)[C@H](CCCNC(=N)N)NC(=O)[C@H](CCCNC(=N)N)NC(=O)[C@H](Cc1ccc(O)cc1)NC(=O)[C@@H]1CSSC[C@H](NC(=O)[C@@H](NC(=O)[C@H](C)N)C(C)C)C(=O)N[C@@H](CCCNC(=N)N)C(=O)N1)C(=O)N[C@H](C(=O)N[C@H]1CSSC[C@@H](C(=O)N[C@@H](CCCNC(=N)N)C(=O)O)NC(=O)[C@H](Cc2ccc(O)cc2)NC1=O)C(C)C [DvirARP] (H-AVCRCYRRARNAIVCYCR-OH; disulfide 3-5, 15-17; N-terminus and C-terminus assumed)
- Binding of S15 DNA fragment (EMSA) [1]: not able to bind
- Lethal concentration CL ([2]; CGMCC 1.0290, pH 7): 10.77 µM
- Lethal concentration CL ([2]; inhibition-zone assay, 0.8% agar, 2 µL peptide per 2-mm well, peptide in 5 mM PB pH 7.0, overnight, Micrococcus luteus CGMCC 1.0290): > 10 µM
- CD signature band around 230 nm (cation–π interaction) with temperature [3]: decreased with the temperature increase
- CD signature band at 206 nm (3_10-helix) with temperature [3]: overall retained
- Lethal concentration CL ([4]; Bacillus CGMCC 1.0459, pH 7): 17.68 µM
- Lethal concentration CL ([4]; inhibition-zone assay, 0.8% agar, 2 µL peptide per 2-mm well, peptide in 5 mM PB pH 7.0, overnight, Bacillus megaterium CGMCC 1.0459): > 10 µM
- Antibacterial activity in inhibition zone assay against S. aureus CGMCC 1.89 ([5]; peptide dissolved in 50% haemolymph serum from DvWT female adults): no detectable antibacterial activity
- Antibacterial activity in inhibition zone assay against S. aureus CGMCC 1.89 ([5]; peptide dissolved in 50% haemolymph serum from DvdelARP female adults): no detectable antibacterial activity
- Antibacterial activity in inhibition zone assay against S. aureus CGMCC 1.89 ([5]; peptide dissolved in insect saline (pH 7.2)): no detectable antibacterial activity
